Test results as given in patent publication US20250091911A1, “NANOFILTRATION SYSTEM AND METHOD INCLUDING PRETREATMENT WITH GREEN SORPTION MEDIA” (University of Central Florida Research Foundation, Inc., priority 2023, published 2025).

Experiments:
[1] = Overall removal by CPS-nanofiltration water treatment system
From the text: (§1) Water samples collected from the C-23 canal were first fortified with PFOS and PFOA and then used as influents to the pretreatment column containing one of the two green sorption media. Note the water samples were not fortified with PFBA and PFBS. The green sorption media effluent served as the feedwater for the nanofiltration unit of the proposed water treatment system. The nanofiltration membrane unit without any green sorption media-based pretreatment served as the “control.” The integration of a green sorption media (CPS or ZIPGEM) with crossflow nanofiltration is herein referred to as a water treatment system, denoted as CPS-nanofiltration or ZIPGEM-nanofiltration. The CPS and ZIPGEM column influents and effluents and nanofiltration permeates were analyzed for both long-chain (PFOS and PFOA) and short-chain (PFBS and PFBA) PFAS. FIG. 3 presents the green sorption media-nanofiltration hybrid treatment scheme.
(§2) The average removal efficiencies of each media pretreatment were calculated based on PFAS concentrations in the influents and effluents of triplicate columns, as disclosed in TABLE 5. […] The overall efficiency of the hybrid treatment was calculated by comparing the average concentrations of PFAS in the influents of the green sorption media pretreatment columns and the nanofiltration permeates, as disclosed in TABLE 6.
(§3) where C0 is the concentration of PFAS in the column influent or nanofiltration feed in ng·L^−1, and where Ce is the concentration of PFAS in the column effluent or nanofiltration permeate in ng·L^−1. TABLE 7 summarizes the key findings of the green sorption media-based pretreatment and green sorption media-nanofiltration treatment, and these are explained in the subsequent subsection through an in-depth discussion and statistical analysis. It should be noted that PFOS concentration was slightly higher in the membrane permeates compared to the effluent of green sorption media pretreatment media, as disclosed in TABLE 5. The slight increase in PFOS concentration could be attributed to the filtration experimental setup that operated in a total recirculation mode. However, most of the differences were very close to the MDL for PFOS (1 ng·L^−1), which was already undetected in the green sorption media effluent

[2] = Overall removal by ZIPGEM-nanofiltration water treatment system
From the text: as §1, §2, §3

[3] = Crossflow nanofiltration of ZIPGEM-pretreated water; details: for PFAS concentration, membrane permeates (MP): ZIPGEM-nanofiltration @ 30 h
Method: (§4) The water samples were collected from the same site of the C-23 canal during both the dry and wet seasons. However, only wet season water samples were used in the experiment. The water samples were analyzed for both long-chain (PFOA and PFOS) and short-chain (Perfluorobutanoic acid [PFBA] and Perfluorobutanesulfonic acid [PFBS]) PFAS following the modified EPA 537.1 method (Shoemaker & Tettenhorst, 2020). Through this method, an aliquot of a 250 mL water sample containing analytes and internal standards is extracted via solid phase extraction. The extracted analytes and internal standards are then eluted with methanol and ammonium hydroxide in methanol solvent. Then the eluted samples are dried with nitrogen and reconstituted to 1 mL volume with a buffer solution. The samples are then injected into a C18 liquid chromatography column, and the PFAS compounds are separated by a gradient of pure methanol and 20 mM ammonium acetate. Finally, the eluted compounds are detected, and their concentrations are measured via tandem mass spectrometry. The method detection limits (MDLs) for PFBA, PFBS, PFOA, and PFOS were 0.5 ng·L^−1, 2 ng·L^−1, 0.5 ng·L^−1, and 1 ng·L^−1, respectively. The concentration of calcium ion (Ca^2+) was analyzed at Eurofins Flowers's Chemical Laboratories (Altamonte Springs, Florida) following EPA method 6010D using inductively coupled plasma optical emission spectroscopy (MDL=0.096 mg·L^−1). Total organic carbon (TOC) and dissolved organic carbon (DOC) were measured using a TOC analyzer following EPA method 415.3.
A commercially available nanofiltration membrane (membrane ID: XN45) was used for the crossflow nanofiltration experiment. The membranes were acquired as flat sheets and cut into coupons of required sizes (active surface area of 42 cm^2) to fit into a membrane cell (CF042).
A bench-scale crossflow filtration setup was used in these experimental methods. The experimental setup consisted of a feed tank, a centrifugal pump, three CF042 membrane cells connected to pressure gauges, check valves, and flowmeters. A recirculating chiller was used for regulating the temperature at 20° C. Three high-precision balances were used to measure the weight of the collected permeate and to calculate the flowrates. The scales were connected to a computer for data acquisition.
Before each experimental run, the membrane cells and tubing were cleaned by running DI water as feed without placing any membrane coupons inside the cells. Then the membrane coupons were mounted into the cells firmly and compacted at 100 psi for at least 4 h using DI water. After that, 5 L of the effluents from the pretreatment media (i.e., the C-23 water samples that were run through the CPS and ZIPGEM) were taken as feedwater for each nanofiltration filtration experiment. The experiments were run for 24 h before collecting permeates and feed samples for analysis. The experiments were conducted at a constant flowrate of 1.0 L·min^−1, with a corresponding cross flow velocity of 0.18 m·s^−1. The transmembrane pressure was initially set to 110 psi at the beginning of the permeate collection by regulating inlet and retentate valves. However, the pressure changed over time as feed concentration increased during the permeate collection. The experiment was run in total recirculation mode, whereby both the retentate and permeate were recycled, except the time of permeate collection.
as §2, with “6. […]” for “6.”

[4] = Control: nanofiltration without green sorption media pretreatment
Method: as §4, §1
A bench-scale crossflow filtration setup was used in these experimental methods. The experimental setup consisted of a feed tank, a centrifugal pump, three CF042 membrane cells connected to pressure gauges, check valves, and flowmeters. A recirculating chiller was used for regulating the temperature at 20° C. […]

[5] = feed = ZIPGEM column 1 effluent
[6] = feed = ZIPGEM column 2 effluent
[7] = feed = ZIPGEM column 3 effluent

| Compound | O = overall removal by water treatment system ([1]; column 1) [%] | O = overall removal by water treatment system ([1]; column 2) [%] | O = overall removal by water treatment system ([1]; column 3) [%] | O = overall removal by water treatment system ([2]; column 1) [%] | O = overall removal by water treatment system ([2]; column 2) [%] | O = overall removal by water treatment system ([2]; column 3) [%] | PFAS concentration, membrane permeates (MP) ([3]; Col 1) [ng/L] | PFAS concentration, membrane permeates (MP) ([3]; Col 2) [ng/L] | PFAS concentration, membrane permeates (MP) ([3]; Col 3) [ng/L] | nanofiltration membrane removal [3, 5] [%] | nanofiltration membrane removal [3, 6] [%] | nanofiltration membrane removal [3, 7] [%] | % Removal by Control, O [4] [%] |
| --- | --- | --- | --- | --- | --- | --- | --- | --- | --- | --- | --- | --- | --- |
| O=C(O)C(F)(F)C(F)(F)C(F)(F)F [PFBA, Perfluorobutanoic acid] | 58 | 45 | 53 | 40 | 36 | 41 | 4.43 | 4.77 | 4.70 | 37 | 32 | 36 | 67 |
| O=S(=O)(O)C(F)(F)C(F)(F)C(F)(F)C(F)(F)F [PFBS, Perfluorobutanesulfonic acid] | 41 | 38 | 52 | 28 | 35 | 35 | 4.67 | 4.23 | 5.10 | 23 | 32 | 36 | 44 |
| O=C(O)C(F)(F)C(F)(F)C(F)(F)C(F)(F)C(F)(F)C(F)(F)C(F)(F)F [PFOA, Perfluorooctanoic acid] | 98 | 94 | 97 | 73 | 82 | 70 | 21.67 | 14.00 | 23.67 | 66 | 78 | 68 | 82 |
| O=S(=O)(O)C(F)(F)C(F)(F)C(F)(F)C(F)(F)C(F)(F)C(F)(F)C(F)(F)C(F)(F)F [PFOS, Perfluorooctanesulfonic acid] | 100 | 100 | 100 | 100 | 100 | 100 | 1.70 | 0.79 | 1.05 | 100 | 100 | 100 | 84 |
